Reference: PubChem BioAssay (NCI)
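Cultured in 96-well plates, cells were exposed to test compound for 48 hours across five concentrations. The concentration for 50% growth inhibition is given as GI50. TGI is the concentration that stops growth completely.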

How the values were obtained:
Assay in all cases: NCI tumour cell line growth inhibition, 48 h
[1] = tested on: RXF 393 renal
[2] = tested on: UACC-257 melanoma
[3] = tested on: MCF7 breast
[4] = tested on: NCI-H23 lung
[5] = tested on: SF-295 CNS
[6] = tested on: CCRF-CEM leukemia
[7] = tested on: HL-60(TB) leukemia
[8] = tested on: PC-3 prostate
[9] = tested on: SF-539 CNS
[10] = tested on: NCI-H522 lung
[11] = tested on: OVCAR-3 ovarian
[12] = tested on: SW-620 colon
[13] = tested on: SK-MEL-5 melanoma
[14] = tested on: HT29 colon
[15] = tested on: HS 578T breast
[16] = tested on: CAKI-1 renal
[17] = tested on: NCI-H226 lung
[18] = tested on: IGROV1 ovarian
[19] = tested on: SF-268 CNS
[20] = tested on: MDA-MB-435
[21] = tested on: OVCAR-4 ovarian
[22] = tested on: UACC-62 melanoma
[23] = tested on: A549 NSCLC
[24] = tested on: SNB-75 CNS
[25] = tested on: A498 renal
[26] = tested on: 786-0 renal
[27] = tested on: COLO 205 colon
[28] = tested on: OVCAR-8 ovarian
[29] = tested on: HOP-62 NSCLC
[30] = tested on: SNB-19 CNS
[31] = tested on: DU-145 prostate
[32] = tested on: SK-MEL-28 melanoma
[33] = tested on: SK-MEL-2 melanoma
[34] = tested on: LOX IMVI melanoma
[35] = tested on: NCI-H460 lung
[36] = tested on: T-47D breast
[37] = tested on: HCT-15 colon
[38] = tested on: MALME-3M melanoma
[39] = tested on: ACHN renal
[40] = tested on: OVCAR-5 ovarian
[41] = tested on: U251 CNS
[42] = tested on: BT-549 breast
[43] = tested on: MDA-MB-231 breast
[44] = tested on: SN12C renal
[45] = tested on: RPMI-8226 leukemia
[46] = tested on: UO-31 renal
[47] = tested on: HCT-116 colon
[48] = tested on: K-562 leukemia
[49] = tested on: NCI/ADR-RES ovarian
[50] = tested on: HOP-92 NSCLC
[51] = tested on: SR leukemia
[52] = tested on: KM12 colon
[53] = tested on: HCC-2998 colon
[54] = tested on: MOLT-4 leukemia
[55] = tested on: SK-OV-3 ovarian
[56] = tested on: TK-10 renal
[57] = tested on: M14 melanoma
[58] = tested on: EKVX NSCLC

SMILES: O=C(CCc1ccco1)NC1CCN(CC2(c3ccc(Cl)cc3)CCC2)CC1
- GI50 [1]: 8.53 µM
- TGI [1]: 22.6 µM
- GI50 [2]: 16.3 µM
- TGI [2]: 31.2 µM
- GI50 [3]: 11.5 µM
- TGI [3]: 26.7 µM
- GI50 [4]: 16.9 µM
- TGI [4]: 38.7 µM
- GI50 [5]: 15.5 µM
- TGI [5]: 30.1 µM
- GI50 [6]: 13.7 µM
- TGI [6]: 49.9 µM
- GI50 [7]: 15.5 µM
- TGI [7]: 38.9 µM
- GI50 [8]: 14.1 µM
- TGI [8]: 31.1 µM
- GI50 [9]: 13.4 µM
- TGI [9]: 26.6 µM
- GI50 [10]: 14.6 µM
- TGI [10]: 30 µM
- GI50 [11]: 15.6 µM
- TGI [11]: 32.4 µM
- GI50 [12]: 15.5 µM
- TGI [12]: 30.5 µM
- GI50 [13]: 15.2 µM
- TGI [13]: 28.7 µM
- GI50 [14]: 3.44 µM
- TGI [14]: 11.8 µM
- GI50 [15]: 13.6 µM
- TGI [15]: 31.4 µM
- GI50 [16]: 13.3 µM
- TGI [16]: 27.2 µM
- GI50 [17]: 20.8 µM
- TGI [17]: 60.2 µM
- GI50 [18]: 19.5 µM
- TGI [18]: 45.8 µM
- GI50 [19]: 15.1 µM
- TGI [19]: 30.7 µM
- GI50 [20]: 11.8 µM
- TGI [20]: 24.1 µM
- GI50 [21]: 10.3 µM
- TGI [21]: 39.2 µM
- GI50 [22]: 15.9 µM
- TGI [22]: 30.8 µM
- GI50 [23]: 14.6 µM
- TGI [23]: 32.5 µM
- GI50 [24]: 10 µM
- TGI [24]: 21.7 µM
- GI50 [25]: 0.0318 µM
- TGI [25]: 11.9 µM
- GI50 [26]: 12.6 µM
- TGI [26]: 25.8 µM
- GI50 [27]: 15.3 µM
- TGI [27]: 31.8 µM
- GI50 [28]: 14.5 µM
- TGI [28]: 30.1 µM
- GI50 [29]: 16.3 µM
- TGI [29]: 32.7 µM
- GI50 [30]: 15.1 µM
- TGI [30]: 30.7 µM
- GI50 [31]: 19.1 µM
- TGI [31]: 41.3 µM
- GI50 [32]: 15.3 µM
- TGI [32]: 29.1 µM
- GI50 [33]: 16.9 µM
- TGI [33]: 31.7 µM
- GI50 [34]: 13.5 µM
- TGI [34]: 27.6 µM
- GI50 [35]: 15.1 µM
- TGI [35]: 28.4 µM
- GI50 [36]: 16.2 µM
- TGI [36]: 46.6 µM
- GI50 [37]: 6.27 µM
- TGI [37]: 20.3 µM
- GI50 [38]: 13.8 µM
- TGI [38]: 29.4 µM
- GI50 [39]: 10.5 µM
- TGI [39]: 22.7 µM
- GI50 [40]: 15.1 µM
- TGI [40]: 29.1 µM
- GI50 [41]: 13.1 µM
- TGI [41]: 26.4 µM
- GI50 [42]: 15.2 µM
- TGI [42]: 29.6 µM
- GI50 [43]: 5.79 µM
- TGI [43]: 20.1 µM
- GI50 [44]: 15.4 µM
- TGI [44]: 33.1 µM
- GI50 [45]: 13.2 µM
- TGI [45]: 35 µM
- GI50 [46]: 7.37 µM
- TGI [46]: 21.3 µM
- GI50 [47]: 12.2 µM
- TGI [47]: 24.5 µM
- GI50 [48]: 2.17 µM
- TGI [48]: 4.62 µM
- GI50 [49]: 14.6 µM
- TGI [49]: 36 µM
- GI50 [50]: 4.69 µM
- TGI [50]: 20.3 µM
- GI50 [51]: 6.93 µM
- TGI [51]: 28.7 µM
- GI50 [52]: 15.3 µM
- TGI [52]: 31.5 µM
- GI50 [53]: 6.02 µM
- TGI [53]: 19.7 µM
- GI50 [54]: 8.37 µM
- TGI [54]: 32.9 µM
- GI50 [55]: 16.9 µM
- TGI [55]: 32.9 µM
- GI50 [56]: 14.5 µM
- TGI [56]: 28.3 µM

SMILES: COc1cc(/C=C2\CCCC3C2=Nc2ccccc2NC3c2cc(OC)c(OC)c(OC)c2)cc(OC)c1OC (stereo not given)
- GI50 [1]: 2.08 µM
- TGI [1]: 5.31 µM
- GI50 [2]: 1.3 µM
- TGI [2]: 6.77 µM
- GI50 [3]: 2.48 µM
- TGI [3]: > 100 µM
- GI50 [4]: 2.15 µM
- TGI [4]: 13.8 µM
- GI50 [5]: 3.65 µM
- TGI [5]: > 100 µM
- GI50 [6]: 0.591 µM
- TGI [6]: 3.6 µM
- GI50 [7]: 2.44 µM
- TGI [7]: 4.97 µM
- GI50 [8]: 2.69 µM
- TGI [8]: > 100 µM
- GI50 [9]: 3.9 µM
- TGI [9]: > 100 µM
- GI50 [10]: 1.9 µM
- TGI [10]: 4.92 µM
- GI50 [11]: 2.08 µM
- TGI [11]: 6.07 µM
- GI50 [57]: 1.27 µM
- TGI [57]: 4.23 µM
- GI50 [12]: 1.6 µM
- TGI [12]: 6.77 µM
- GI50 [13]: 1.95 µM
- TGI [13]: 5.72 µM
- GI50 [14]: 1.21 µM
- GI50 [15]: 4.75 µM
- TGI [15]: > 100 µM
- GI50 [16]: 3.31 µM
- TGI [16]: > 100 µM
- GI50 [17]: 1.93 µM
- TGI [17]: 4.19 µM
- GI50 [18]: 4.1 µM
- TGI [18]: 18.5 µM
- GI50 [19]: 2.02 µM
- TGI [19]: 71.5 µM
- GI50 [20]: 0.425 µM
- TGI [20]: 4.4 µM
- GI50 [21]: 2.14 µM
- TGI [21]: > 100 µM
- GI50 [22]: 1.37 µM
- TGI [22]: 3.52 µM
- GI50 [23]: 1.9 µM
- TGI [23]: 8.06 µM
- GI50 [24]: 21.9 µM
- TGI [24]: > 100 µM
- GI50 [25]: 1.49 µM
- TGI [25]: 6.41 µM
- GI50 [26]: 2.55 µM
- TGI [26]: 8 µM
- GI50 [27]: 2.59 µM
- TGI [27]: 6.29 µM
- GI50 [28]: 0.4 µM
- TGI [28]: 42.9 µM
- GI50 [29]: 1.86 µM
- TGI [29]: 8.4 µM
- GI50 [30]: 8.37 µM
- TGI [30]: > 100 µM
- GI50 [31]: 1.87 µM
- TGI [31]: 6.8 µM
- GI50 [32]: 2.02 µM
- TGI [32]: 5.24 µM
- GI50 [33]: 3.1 µM
- TGI [33]: 8.33 µM
- GI50 [34]: 1.81 µM
- TGI [34]: 5.86 µM
- GI50 [35]: 0.643 µM
- TGI [35]: 2.42 µM
- GI50 [36]: 3.75 µM
- TGI [36]: 52.7 µM
- GI50 [37]: 1.77 µM
- TGI [37]: 4.08 µM
- GI50 [38]: 1.56 µM
- TGI [38]: 6.56 µM
- GI50 [39]: 1.66 µM
- TGI [39]: 3.57 µM
- GI50 [40]: 3.68 µM
- TGI [40]: 11.9 µM
- GI50 [42]: 1.58 µM
- TGI [42]: 5.5 µM
- GI50 [58]: 7.45 µM
- TGI [58]: > 100 µM
- GI50 [43]: 2.9 µM
- TGI [43]: 25 µM
- GI50 [44]: 2.1 µM
- TGI [44]: 14 µM
- GI50 [45]: 0.389 µM
- TGI [45]: 2.4 µM
- GI50 [46]: 1.66 µM
- TGI [46]: 4.48 µM
- GI50 [47]: 0.968 µM
- TGI [47]: 2.17 µM
- GI50 [48]: 2.1 µM
- TGI [48]: 10.3 µM
- GI50 [49]: 0.957 µM
- TGI [49]: > 100 µM
- GI50 [50]: 1.83 µM
- TGI [50]: 9.84 µM
- GI50 [51]: 0.723 µM
- TGI [51]: 3.14 µM
- GI50 [52]: 0.863 µM
- TGI [52]: 2.21 µM
- GI50 [53]: 2.3 µM
- TGI [53]: 4.81 µM
- GI50 [54]: 2.31 µM
- TGI [54]: 5.4 µM
- GI50 [55]: 4.87 µM
- TGI [55]: > 100 µM
- GI50 [56]: 3.49 µM
- TGI [56]: 17.7 µM
